The values below come from US9168243B2, “Pharmaceutical compositions comprising 8-substituted dibenzylbutyrolactone lignans” (priority 2010, dated 2015).

“Also recorded” adds a separate entry of the source.

For data set [1], the system named is LNCaP prostate cancer cells. Description: Flow cytometric screen for sensitization to TRAIL-induced apoptosis (nuclear fragmentation by propidium iodide, mitochondrial depolarization by TMRM). The class given is cell-based. To be noted: for capacity to sensitize LNCaP prostate cancer cells to TRAIL-induced apoptosis: androgen-deprived, 40 μM lignan 1 hour before 10 ng/ml izTRAIL, 20 hours. How it is done: (§1) Flow cytometric analysis of apoptosis with HTS platform was performed on cells that were plated on a 96-well plate as triplicate samples. After 24 hours in androgen-deprived conditions, the cells were pretreated with 40 μM lignans or lignan derivatives for 1 hour prior to addition of 10 ng/ml izTRAIL. Twenty hours later the plate was centrifuged with a culture plate rotor (1000 rpm, 3 minutes). For analysis of nuclear fragmentation, propidium iodide (PI) buffer (40 mM Na-citrate, 0.3% Triton X-100, 50 μg/ml PI; Sigma) was added to the wells. After 10 minutes incubation at room temperature, the plate was analyzed with LSRII flow cytometer equipped with HTS platform (PE-A channel). The fraction of sub-G0/G1 events (nuclear fragmentation) was gated as a measure of apoptotic cell death. For detection of mitochondrial depolarization, the cells were detached by trypsinization of the cells and incubated in 20 nM tetramethylrhodamine (TMRM; Invitrogen) in warm culture medium for 10 minutes before analysis. The plate was analyzed with LSRII flow cytometer equipped with HTS platform (FSC, PE-A channel). The cells with decreased TMRM incorporation were considered to have undergone mitochondrial membrane depolarization. Activated caspase-3 in cells was labeled with phycerythrin (PE)-conjugated antibody according to manufacturer's protocol (BD Pharmingen) and analyzed by FacsCalibur flow cytometer (FL-2, FSC).
LNCaP cells were cultured in the absence of 1 nM androgen and incubated with lignan compounds (40 μM) for 1 hour before izTRAIL treatment (10 ng/ml) or control for 20 hours. The samples were screened for nuclear fragmentation by propidium iodide labeling (FIG. 1A) or mitochondrial depolarization by TMRM labeling (FIG. 1B). The plates were analyzed with LSRII flow cytometer equipped with HTS platform (FSC, PE-A channels). The fraction of sub-G0/G1 events (nuclear fragmentation; PE-A channel) was gated as a measure of apoptotic cell death (FIG. 1A) and the cells with decreased TMRM incorporation (PE-A channel) were considered to have undergone mitochondrial membrane depolarization (FIG. 1B). Representative histograms and dot blots for control, TRAIL, nortrachelogenin (NTG) and NTG+TRAIL treatments are viewed.
Importantly, substitution with methyl group at position 8 further increases activity of dibenzylbutyrolactone lignans in sensitization of LNCaP prostate cancer cells to TRAIL-mediated apoptosis (FIG. 8). LNCaP cells were cultured in the absence of 1 nM androgen and incubated with indicated lignan compounds (40 μM) for 1 hour before izTRAIL treatment (10 ng/ml) or control for 20 hours. The cells were disrupted and the nuclei labeled for DNA content with propidium iodide. The samples were analyzed by flow cytometry and the fraction of sub-G0/G1 events (nuclear fragmentation) was detected as a measure of apoptotic cell death (mean±SEM; n=4). (FIG. 8A). Alternatively, LNCaP cells (+/−1 nM androgen) were incubated with 0-100 μM 8-Me-MAT for 1 hour after which total cell lysates were prepared and the samples were analyzed by Western blotting for Akt and phospho-Akt(ser473) expression.

Data set [2] deals with phospho-Akt(ser473). Nature of the data set: Western blot of Akt / phospho-Akt(ser473). The format is cell-based. To be noted: LNCaP +/- 1 nM androgen; 0-100 μM lignan, 1 hour (NTG also 100 μM, 0-8 hours). How it is done:
Whole cell lysates were prepared by lysing floating and attached cells in Laemmli sample buffer and boiling the samples for 10 minutes. Proteins were separated by SDS-PAGE and transferred on PVDF membrane (Millipore). Western blotting was performed using antibodies against Akt, phospho-Akt (Ser473), GSK-3β, phospho-GSK-3β (Ser9) and phospho-EGF receptor Tyr(1068) (Cell Signalling Technology), Actin (clone AC-40; Sigma-Aldrich), PI3K p85α (clone 4/PI3-Kinase; BD Pharmingen), EGF receptor, Insulin receptor β and IGF-I receptor β (Santa Cruz Biotechnology), and Phospho-tyrosine (clone 4G10; Millipore). HRP-conjugated secondary antibodies were from Southern Biotechnology Associates, Promega, and Amersham Biosciences. The results were visualized using the ECL method (Amersham Biosciences) on x-ray film. The presented Western blot results are representative of at least three independent experiments. Densitometric analysis of Western blots was done using scanned films with the MCID M5+ software. The values were normalized to the untreated control sample, which was given the value 1. The histograms in FIG. 4 present a relative decrease in ratio of phosphorylated vs. non-phosphorylated protein compared to control cells.
LNCaP cells (+/−1 nM androgen) were treated with 0-100 μM enterolactone (ENL), matairesinol (MAT) or NTG for 1 hour prior to preparation of total cell lysates (FIG. 4A). The relative decrease in pAkt/Akt ratio was quantified from western blot analysis with Akt (60 kDa) and phospho-Akt(ser473) (Mean±SEM; n=4; Student's t-test *p<0.05, **p<0.01). Alternatively, androgen-deprived LNCaP cells were incubated with 100 μM NTG for 2 hours, fixed and labeled with Akt antibody followed by Alexa 546-conjugated secondary antibody. The samples were viewed at LSM 510 confocal microscope (63× oil objective, 543 nm excitation) (FIG. 4B). To examine the time-dependence of the observed inhibitory effect, LNCaP cells (+/−1 nM androgen) were incubated with 100 μM NTG for 0-8 hours after which total cell lysates were prepared. The western blot analysis with Akt, phospho-Akt(ser473), GSK-3β and phospho-GSK-3β(ser9) was quantified. The histogram presents a relative decrease in pAkt/Akt ratio (FIG. 4C.) or pGSK-3β/GSK-3β ratio (FIG. 4D.) compared to control cells (Mean±SEM; n=3). […]
Importantly, substitution with methyl group at position 8 further increases activity of dibenzylbutyrolactone lignans in sensitization of LNCaP prostate cancer cells to TRAIL-mediated apoptosis (FIG. 8). […] The samples were analyzed by flow cytometry and the fraction of sub-G0/G1 events (nuclear fragmentation) was detected as a measure of apoptotic cell death (mean±SEM; n=4). […]
On the technique in general: In western blotting, separated proteins are transferred to a membrane and probed.

The test system of data set [3] is LNCaP cells. Description: Caspase-3 activation by flow cytometry, TRAIL with or without NTG. To be noted: TRAIL alone, 20 h. The format is cell-based. How it is done:
as §1
As NTG was identified as the most efficient TRAIL-sensitizing lignan, we analyzed the ability of NTG to affect the efficacy of different TRAIL concentrations in triggering of caspase-3 activation (FIG. 2A). The TRAIL resistant LNCaP cells were cultured in androgen-supplied and androgen-deprived conditions to simulate the effects of androgen-deprivation therapy, and treated for 20 h with TRAIL alone or with the combination of 40 μM NTG and TRAIL. The percentage of cells with activated caspase-3 increased from maximum of 15% to 60% for androgen-deprived, and from 13% to 30% for androgen-supplied cells (Mean±SEM; n≧3) (FIG. 2A).
On the technique in general: In flow cytometry, cells or beads pass a laser one at a time.

In data set [4] the test system is LNCaP cells. Description: Clonogenic assay. The format is cell-based. To be noted: 11 days; 10 ng/ml TRAIL or 40 μM NTG alone. How it is done: Five hundred LNCaP cells were plated in 1 ml of culture medium and let to adhere prior to addition of the indicated treatments. After 11 days of incubation, cell colonies were fixed with glutaraldehyde (6.0% v/v), stained with crystal violet (0.5% w/v) and imaged using a digital camera.
To investigate the effects of NTG alone and in combination with TRAIL on colony formation ability, the LNCaP cells were plated in low confluency and treated for 11 days.

Data set [5] relates to phospho-Akt(ser473). To be noted: reported earlier; cited from earlier work.
The conditions of data set [6]: in vivo; cited from earlier work.

On to `COc1ccc(CC2COC(=O)C2(C)Cc2ccc(OC)c(OC)c2)cc1OC` (stereo not shown) [8-Me-dimethylmatairesinol, 8-Methyldimethylmatairesinol], for which the “capacity to sensitize LNCaP prostate cancer cells to TRAIL-induced apoptosis” value in data set [1] is given as “clearly enhances the activity”.
Take `COc1cc(CC2COC(=O)C2(C)Cc2ccc(O)c(OC)c2)ccc1O` (stereo not shown) [8-Me-MAT, 8-Methylmatairesinol]: the “capacity to sensitize LNCaP prostate cancer cells to TRAIL-induced apoptosis” value in data set [1] is on record as “increased capacity to sensitize LNCaP prostate cancer cells to TRAIL-mediated apoptosis”. The “Akt phosphorylation (pAkt/Akt ratio)” value in data set [2] is given as “strongly inhibitory effect on Akt phosphorylation; also recorded: inhibit Akt phosphorylation yet more efficiently than ENL or MAT”.
In the case of TRAIL, the entries for the “percentage of cells with activated caspase-3 (maximum)” value in data set [3] (androgen-deprived LNCaP) and in data set [3] (androgen-supplied LNCaP) were 15% and 13%, respectively. Also, the “colony formation ability, single agent” value in data set [4] is listed as “not able to inhibit LNCaP growth”.
Regarding `O=C1OC[C@H](Cc2cccc(O)c2)[C@H]1Cc1cccc(O)c1` [ENL, Enterolactone], the “Akt phosphorylation in prostate cancer cells” value in data set [5] is “can reportedly inhibit Akt phosphorylation”.
For `COc1cc(C[C@H]2COC(=O)[C@@H]2Cc2ccc(O)c(OC)c2)ccc1O` [MAT, Matairesinol, reference compound], the “increase of the apoptotic response compared to TRAIL alone (factor)” value in data set [1] (lignan in combination with TRAIL) is recorded as 2.5. Besides, in data set [5], the “Akt phosphorylation in prostate cancer cells” value is on record as “can reportedly inhibit Akt phosphorylation”. The “conversion into the mammalian lignans” value in data set [6] was “converted to ENL in the digestive tract”.
